Results taken from patent US8367620B2, “Peptidic growth hormone secretagogues analog compounds and preparations thereof” (Centro de Ingenieria Genetica y Biotecnologia, priority 2006, dated 2013).
Read-outs that look alike come from different tables or passages of the source. Where a SMILES comes first, the peptide text is derived from it. Bridges are numbered along the chain shown (N, C = ends). Where no end group is shown, it is not given here. [ ]: non-standard residue; d: D form. d2Nal = N[C@H](Cc1ccc2ccccc2c1)C(=O)O

Columns and labels:
IGF-I mRNA = IGF-I mRNA in liver and GH level of intraperitoneally injected tilapias; type: in vivo, tilapia; conditions: liver of intraperitoneally injected tilapias
Experimental: IGF-I mRNa was determined in the liver of intraperitoneally injected tilapias monitoring also the GH level time course, showing the peptidic GHS analog compounds as able to stimulate in fish the GH levels in the bloodstream and at incrementing the IGF-I mRNA levels after the injection of the compounds as shown in table 4.

[1] = tested on: Post-larvae of Litopenaeus vanamei; assay: Growth stimulation in shrimps by dietary supplementation; type: in vivo; conditions: compound at 1% in post-larvae crustacean diet
Experimental: The peptidic GHS analogs were included at 1% in a post-larvae crustacean diet. Post-larvae of Litopenaeus vanamei were fed with the aforementioned diet in parallel with a control group with 1% BSA addition. The effect was measured with an optical micrometer and weighing the animals in a 0.1 mg precision scale.

Litopenaeus vanamei [2] = assay: Growing of shrimp larvae by dipping in solution of the compounds; type: in vivo; conditions: four dips of one hour every three days, 0.1 g/L
Experimental: (§1) Shrimp larvae were subjected two four dips, for one hour every three days with different peptidic GHS analogs at 0.1 g/L. The control group was subjected to the same frequency of dipping with 1 mg/L BSA.

[3] = tested on: primary cultures of granular cerebellum cells; type: cell-based, Wistar rats
Experimental: Primary cultures of granular cerebellum cells were obtained from 7-9 days Wistar rats. After a rapid dissection, rat cerebellums were submerged in a cold solution and meningeal membranes were removed, each organ was transferred to a 2-3 ml fresh medium solution and finely sliced. Cells were dissociated using a Pasteur pipette and filtered through a nylon […] membrane (Falcon, Franklin Lakes, N.J.). The number of viable cells was determined by cell counting in a hematocytometer with tripan blue as a marker. Cells were cultured on polylysine covered 96 well plates at a density of 6250 cells in […] final volume. Cultures were kept at 37° C. in 5%. CO2 after 24 h, 10 μM of cytosine arabinofuranose (AraC; Sigma) was added to inhibit the proliferation of non-neuronal cells. The capacity of neural damage prevention was tested adding 500 μM hydrogen peroxide in different concentrations of peptidic GHS analog compounds, Cell survival was determined using the Promega non-radioactive cytotoxicity proliferation assay, Cell Titer 96 (Promega).

lysozyme = assay: Lysozyme levels in tilapia larvae treated by immersion; type: in vivo, Oreochromis sp.; conditions: immersion 100 μg/L
Experimental: (§2) Growth stimulation experiments on tilapia Oreochromis sp. larvae were performed evaluating groups of 100 larvae with 0.01 g average, using the peptidic GHS analogs, in a 100 μg/L concentration, twice a week using an immersion time of one hour.
During this experiment lysozyme levels were also monitored and an increase of this immunity marker was obtained in the treated animals as shown in table 8.

[4] = tested on: tilapia Oreochromis sp. larvae; assay: Growth stimulation of tilapia larvae by immersion; type: in vivo; conditions: immersion 100 μg/L, one hour twice a week, three weeks
Experimental: as §2

[5] = tested on: Doxorubicin induced Dilated Cardiomyopathy; assay: Prevention of Doxorubicin induced myocardial failure in rats (VEF, forced swimming); type: in vivo, Wistar rats; conditions: for ventricular ejection fraction (VEF) with respect to the healthy control: rats, Dx 2 mg/kg 8 weeks plus compound ip 500 μg/Kg, placebo VEF drop about 40%; for survival after forced swimming: Dx treated rats, compound ip 500 μg/Kg, 4° C. water 30 minutes, Dx-saline 45%
Experimental: To reproduce the physiopathogenic effects of a Dilated Cardiomyopathy (DCM) female Wistar rats of 160 g were treated with 2 mg/kg Doxorubicin (Dx) during 8 weeks. A group of this rats was also treated in parallel with compounds A221, A228 or A233 intraperitoneally at 500 μg/Kg during the 8 weeks of Dx treatment, another Dx treated group was also receiving saline solution as a placebo, and as a healthy control for the experiment another group of untreated Wistar rats of the same age was used. After the 8 week treatment all the rats were tested with an echocardiogram, to test the ventricular functionality and assess the ventricular ejection fraction (VEF).

[6] = tested on: Doxorubicin induced Dilated Cardiomyopathy; assay: Reversion of Doxorubicin induced dilated cardiomyopathy in rats, dose-response; type: in vivo, Wistar rats; conditions: rats with Dx induced DCM; for mortality in the group respect to placebo or lower concentrations / total VEF recovery: 50 μg/kg; for DCM reversion two weeks after the treatment: 50 μg/kg to 500 μg/kg; for DCM reversion at 4 weeks of treatment: 100 to 500 μg/kg; for VEF recovery at lower concentrations: doses lower than 50 μg/kg
Experimental: To assess if there is any dose-response effect and reversion of DCM, Wistar rats were subjected to a treatment with 2 mg/kg of Doxorubicin (Dx) for 8 weeks, after the treatment all rats with a VEF drop higher than 40% were selected, divided in groups of n=8 and treated with different doses of compounds A221, A228 or A233 as follows: • 500 μg/kg, • 250 μg/kg, • 100 μg/kg, • 50 μg/kg, • 25 μg/kg, • 10 μg/kg • Saline Solution.
(FIG. 4, a A221, b A228 and c A233).

Litopenaeus vanamei [7] = assay: Shrimp dipping experiment in production conditions; type: in vivo
Experimental: as §1
This experiment was also performed in production conditions for compounds A221, A228 y A233, with a 20% of higher survival compared with the controls, keeping a stimulation of 110% on the weight and 30% in the size, showing on the treated animals a better homogeneity on the size distribution with only a 30% and a 8% of variation coefficient in weight and size respectively, on contras with a 77% and 30% in the non treated group.

tilapias = assay: Growth acceleration on juvenile tilapias treated intraperitoneally; type: in vivo; conditions: juvenile tilapia, ip 0.1 μg/g twice a week, three weeks
Experimental: The compounds were dissolved in a sodium phosphate (PBS) buffer solution and injected twice a week, during three weeks at 0.1 μg/g of humid fish weight (gbw). Compounds were applied individually to a group of 10 male tilapias with an average weight of 60.41±10.36 g and a control group with an average weight of 60.58±19.67 g was receiving PBS only as a control, measuring the average weight every week, all animals in the experiment were labelled with microchips (Stoelting Co. Wood Dale, USA.). for proper identification.

PC12 cells = type: cell-based
Experimental: PC12 cells were stored in 75 cm^2 culture flasks on DMEM containing 5% bovine foetal serum and 10% horse serum, with 50 μg/ml gentamicin. Cells were incubated at 37° C. in 5% CO2. To induce differentiation cells were transferred at a density of 1×10^4 to polylysine covered 96 well plates in NGF supplemented DMEM media for 7 days, with medium replacement every 2-3 days. After differentiation cells were incubated with peptidic GHS analog compounds, at different concentrations for 72 h. Cell survival and proliferation was determined using the Promega non-radioactive cytotoxicity proliferation assay, Cell Titer 96, based in the conversion of 3-(4,5-dimethylthiazole-2-yl)-2,5-diphenyltetrazolium bromide (MTT) in to a spectrophotometrically detectable product. After deprivation of NGF medium is removed and 15 μl of the DMEM dissolved dye is added, after 4 hours of 37° C. incubation 100 μl of the stopping solution is added and absorbance is measured at 570 nm

[8] = tested on: Litopenaeus vanamei post-larvae; assay: Growth of shrimp post-larvae fed Artemia-bioencapsulated compounds; type: in vivo; conditions: Artemia bioencapsulated (10 mh/L, one hour), fed four times a day for one month
Experimental: The peptidic GHS analogs were bioencapsulated in Artemia to be fed to Litopenaeus vanamei post-larvae. For the encapsulation the compounds were added in a 10 mh/L left for an hour, harvested and washed. The animals were fed four times a day for one month while the control group was fed with BSA encapsulated Artemia The effect was measured with an optical micrometer and weighing the animals in a 0.1 mg precision scale.

GH release = conditions: McDowell 1995; compared to GHRP-6; cited from earlier work
[9] = 500 μM hydrogen peroxide, rat cerebellum granular cells, read-out: IC50 during the induced neuronal damage by Hydrogen Peroxide addition to a primary culture of neurons
[10] = differentiated PC12 cells, 72 h incubation, MTT, read-out: IC50 during the NGF deprivation induced neuronal death

| Compound | Normalized IGF-I mRNA levels to a non related synthetic peptide control group (IGF-I mRNA) | Size Inc. (%), control group growing = 100% [1] [%] | Size Inc. (%), control group growing = 100% (Litopenaeus vanamei [2]) [%] | Weight Inc. (%), control group growing = 100% (Litopenaeus vanamei [2]) [%] | Lysozyme levels of the treated animals relative to the control group (lysozyme) | Weight Inc. (%), control group growing = 100% [4] [%] | ventricular ejection fraction (VEF) with respect to the healthy control [5] | mortality in the group respect to placebo or lower concentrations [6] | total VEF recovery [6] | DCM reversion two weeks after the treatment [6] | DCM reversion at 4 weeks of treatment [6] | VEF recovery at lower concentrations [6] | higher survival compared with the controls (Litopenaeus vanamei [7]) [%] | stimulation in the size (Litopenaeus vanamei [7]) [%] | stimulation on the weight (Litopenaeus vanamei [7]) [%] | Weight Inc. (%), control group growing = 100% (tilapias) [%] | Size Inc. (%), control group growing = 100% [8] [%] | IC50 [3, 9] [µM] | survival after forced swimming [5] [%] | IC50 (PC12 cells; [10]) [µM] | further results |
| --- | --- | --- | --- | --- | --- | --- | --- | --- | --- | --- | --- | --- | --- | --- | --- | --- | --- | --- | --- | --- | --- |
| NCC(=O)N[C@@H](CO)C(=O)N[C@H]1CCCCNC(=O)C[C@@H](C(=O)N[C@@H](CO)C(=O)N2CCC[C@H]2C(=O)N[C@@H](CCC(=O)O)C(=O)N[C@@H](Cc2c[nH]cn2)C(=O)N[C@@H](CCC(N)=O)C(=O)O)NC(=O)[C@H](Cc2ccccc2)NC1=O [Compound A221, GSKFDSPEHQ] (H-GSKFDSPEHQ-OH; lactam 3-5; N-terminus and C-terminus assumed) | 1.32 | 130.0 | 112.0 | 120.1 | 1.01 | 97.0 | slightly modified VEF | somehow effective to reduce mortality | not effective for the total VEF recovery | partially reverts DCM | DCM reversion is complete | do not recovered VEF | 20 | 30 | 110 | 98.0 | 130.2 |  |  |  | IC50 [3]: 1.8 µM; IC50 (PC12 cells; 72 h): 2.02 µM |
| GKFDLSPEHQ [Compound A233, L-amino acid peptide with internal side-chain cycle, SEC; ID NO: 13] | 1.69 | 140.1 | 124.9 | 143.0 | 2.68 | 155.0 | slightly modified VEF | somehow effective to reduce mortality | not effective for the total VEF recovery | partially reverts DCM | DCM reversion is complete | do not recovered VEF | 20 | 30 | 110 | 165.0 | 140.0 | 3.56 | 100 | 5 |  |
| GKFGDLSPEHQ [Compound A228, L-amino acid peptide with internal side-chain cycle, SEC; ID NO: 8] | 1.18 | 140.0 | 118.9 | 128.2 | 1.08 | 132.0 | slightly modified VEF | somehow effective to reduce mortality | not effective for the total VEF recovery | partially reverts DCM | DCM reversion is complete | do not recovered VEF | 20 | 30 | 110 | 130.6 | 140.0 | 1.77 | 100 | 3.99 |  |
| [dK][d2Nal]AW[dF]EK-NH2 |  |  |  |  |  |  |  |  |  |  |  |  |  |  |  |  |  |  |  |  | fold increased activity in vitro (GH release): 10 fold |
